Measurements taken from patent US12384744B2, “Enzyme-cleavable methadone prodrugs and methods of use thereof” (Ensysce Biosciences Inc., priority 2021, dated 2025).

Tested on: trypsin
Experiment: Digestion with trypsin (trypsin digestion of methadone prodrugs and release of methadone)
Assay type: biochemical
Protocol: FIG. 6 depicts an example of trypsin digestion of methadone prodrugs according to certain embodiments. All pro-drugs are digested fully within 8-24 h. The pro-drug with 1-methylethyl linker is slightly slower, requiring 24-48 h.

## CC=C(OC(=O)N(C)C(C)CNC(=O)[C@H](CCCNC(=N)N)NC(=O)c1ccccc1)C(CC(C)N(C)C)(c1ccccc1)c1ccccc1 (stereo partly drawn) [pro-drug with 1-methylethyl linker, 6-(dimethylamino)-4,4-diphenylhept-2-en-3-yl (1-((S)-2-benzamido-5-guanidinopentanamido)propan-2-yl)(methyl)carbamate]
FIG. 6
  time until pro-drug is digested fully by trypsin: 24 to 48 h
FIG. 6 and FIGS. 7A-7D, result in words
  release of methadone from the release intermediate after trypsin digestion: rapid release to methadone
